Biological target: TSPO (Rattus norvegicus, UniProt P16257)
Test: Inhibition of [3H]1 binding to rat kidney mitochondrial membranes
Conditions: ratio of Ki, 20 vs Ib, 21 vs Ic

Compound | gain in activity with respect to desmethyl counterpart
CCCCN(CCCC)C(=O)C(=O)c1c(-c2ccccc2)n(C)c2ccccc12 [compound 20] | 25
CCCCCCN(CCCCCC)C(=O)C(=O)c1c(-c2ccccc2)n(C)c2ccccc12 [compound 21] | 4.6
